{"source": "PubChem BioAssay (NCI)", "experiment_in_all_cases": "NCI tumour cell line growth inhibition, 48 h", "key": {"NCI/ADR-RES ovarian": {"system": "NCI/ADR-RES ovarian"}, "T-47D breast": {"system": "T-47D breast"}, "MDA-MB-435": {"system": "MDA-MB-435"}, "DU-145 prostate": {"system": "DU-145 prostate"}, "CAKI-1 renal": {"system": "CAKI-1 renal"}, "MDA-MB-231 breast": {"system": "MDA-MB-231 breast"}, "SR leukemia": {"system": "SR leukemia"}, "MDA-N": {"system": "MDA-N"}, "P388 leukemia": {"system": "P388 leukemia"}, "HOP-18 NSCLC": {"system": "HOP-18 NSCLC"}, "DMS 273 small cell lung": {"system": "DMS 273 small cell lung"}, "P388/ADR leukemia": {"system": "P388/ADR leukemia"}, "XF 498 CNS": {"system": "XF 498 CNS"}, "LXFL 529 NSCLC": {"system": "LXFL 529 NSCLC"}}, "note": "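Step 1: Grow cells in 96-well plates. Step 2: Expose to compound for 48 hours at 5 concentrations. Step 3: Interpolate endpoints linearly; if unreached, use highest concentration. GI50: concentration for 50% inhibition of growth. Definition used: TGI = concentration required for complete inhibition of growth.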", "data": [{"smiles": "COc1cc2cc(C(=O)N3C[C@H](CCl)c4c3cc(N)c3ccccc43)[nH]c2c(OC)c1OC", "values": [{"measurement": "TGI", "setting": "NCI/ADR-RES ovarian", "value": 7.69, "unit": "µM"}, {"measurement": "TGI", "setting": "T-47D breast", "value": "< 0.005", "unit": "µM"}, {"measurement": "TGI", "setting": "MDA-MB-435", "value": 0.137, "unit": "µM"}, {"measurement": "GI50", "setting": "DU-145 prostate", "value": "< 0.005", "unit": "µM"}, {"measurement": "TGI", "setting": "DU-145 prostate", "value": "< 0.005", "unit": "µM"}, {"measurement": "TGI", "setting": "CAKI-1 renal", "value": "< 0.005", "unit": "µM"}, {"measurement": "GI50", "setting": "MDA-MB-231 breast", "value": 0.005, "unit": "µM"}, {"measurement": "TGI", "setting": "MDA-MB-231 breast", "value": 0.0254, "unit": "µM"}, {"measurement": "GI50", "setting": "SR leukemia", "value": 0.005, "unit": "µM"}, {"measurement": "TGI", "setting": "SR leukemia", "value": "> 50", "unit": "µM"}, {"measurement": "GI50", "setting": "MDA-N", "value": "< 0.001", "unit": "µM"}, {"measurement": "TGI", "setting": "MDA-N", "value": 9.03, "unit": "µM"}]}, {"smiles": "CCCCOc1ccc(OCCCCCCCCCC[N+](C)(C)C)cc1", "values": [{"measurement": "TGI", "setting": "P388 leukemia", "value": 3.06, "unit": "µM"}, {"measurement": "TGI", "setting": "NCI/ADR-RES ovarian", "value": "> 100", "unit": "µM"}, {"measurement": "TGI", "setting": "HOP-18 NSCLC", "value": 13.7, "unit": "µM"}, {"measurement": "TGI", "setting": "CAKI-1 renal", "value": 16.6, "unit": "µM"}, {"measurement": "TGI", "setting": "DMS 273 small cell lung", "value": 4.25, "unit": "µM"}, {"measurement": "TGI", "setting": "P388/ADR leukemia", "value": 17.8, "unit": "µM"}, {"measurement": "TGI", "setting": "XF 498 CNS", "value": 4.57, "unit": "µM"}]}, {"smiles": "CN(C)CCNC(=O)c1cc(Cl)cc2ccc(-c3ccccc3)nc12", "values": [{"measurement": "TGI", "setting": "NCI/ADR-RES ovarian", "value": 10.9, "unit": "µM"}, {"measurement": "TGI", "setting": "HOP-18 NSCLC", "value": 12.5, "unit": "µM"}, {"measurement": "TGI", "setting": "CAKI-1 renal", "value": 8.56, "unit": "µM"}, {"measurement": "TGI", "setting": "DMS 273 small cell lung", "value": 7.48, "unit": "µM"}, {"measurement": "TGI", "setting": "P388/ADR leukemia", "value": 7.95, "unit": "µM"}, {"measurement": "TGI", "setting": "XF 498 CNS", "value": 5.04, "unit": "µM"}]}, {"smiles": "CSc1cc(=O)n2c3ccccc3c3ccnc1c32", "values": [{"measurement": "TGI", "setting": "P388 leukemia", "value": "> 100", "unit": "µM"}, {"measurement": "TGI", "setting": "NCI/ADR-RES ovarian", "value": "> 100", "unit": "µM"}, {"measurement": "TGI", "setting": "HOP-18 NSCLC", "value": 98.2, "unit": "µM"}, {"measurement": "TGI", "setting": "DMS 273 small cell lung", "value": "> 100", "unit": "µM"}, {"measurement": "TGI", "setting": "P388/ADR leukemia", "value": "> 100", "unit": "µM"}]}, {"smiles": "O=S(=O)(O)c1ccc(N=Nc2ccc(N=Nc3ccc(/C=C/c4ccc(N=[N+]([O-])c5ccc(/C=C/c6ccc(N=Nc7ccc(N=Nc8ccc(S(=O)(=O)O)cc8)cc7)cc6S(=O)(=O)O)c(S(=O)(=O)O)c5)cc4S(=O)(=O)O)c(S(=O)(=O)O)c3)cc2)cc1", "values": [{"measurement": "TGI", "setting": "P388 leukemia", "value": "> 100", "unit": "µM"}, {"measurement": "TGI", "setting": "NCI/ADR-RES ovarian", "value": "> 100", "unit": "µM"}, {"measurement": "TGI", "setting": "HOP-18 NSCLC", "value": "> 100", "unit": "µM"}, {"measurement": "TGI", "setting": "DMS 273 small cell lung", "value": "> 100", "unit": "µM"}, {"measurement": "TGI", "setting": "P388/ADR leukemia", "value": "> 100", "unit": "µM"}, {"measurement": "TGI", "setting": "XF 498 CNS", "value": "> 100", "unit": "µM"}]}, {"smiles": "Cc1cc(C)nc(NS(=O)(=O)c2ccc(Nc3c4ccccc4nc4c(C(=O)N5CCN(CCOS(C)(=O)=O)CC5)cccc34)cc2)n1", "values": [{"measurement": "TGI", "setting": "CAKI-1 renal", "value": "> 100", "unit": "µM"}, {"measurement": "TGI", "setting": "XF 498 CNS", "value": "> 100", "unit": "µM"}]}, {"smiles": "NCCCCNCCCNC(=O)c1nc(-c2nc(CCN)sc2Cl)sc1Cl", "values": [{"measurement": "TGI", "setting": "LXFL 529 NSCLC", "value": 11.1, "unit": "µM"}, {"measurement": "TGI", "setting": "CAKI-1 renal", "value": "> 100", "unit": "µM"}, {"measurement": "TGI", "setting": "DMS 273 small cell lung", "value": "> 100", "unit": "µM"}, {"measurement": "TGI", "setting": "SR leukemia", "value": "> 100", "unit": "µM"}, {"measurement": "TGI", "setting": "XF 498 CNS", "value": "> 100", "unit": "µM"}]}]}
